Assay results reported in US20130224296A1, “Drug Formulations Using Water Soluble Antioxidants” (Bristol-Myers Squibb Company, priority 2010, published 2013).
Converted amounts (≈) assume the structure as drawn.

Legend:
[1] = Level of formaldehyde and formic acid in antioxidant containing Opadry films (GC); format: physicochemical; settings: Opadry II white film, sealed vials 60° C. for 5 days; 0.2% w/v BHT or 2% w/v ascorbic acid or propyl gallate in suspension
Method: Five hundred μL of the coating suspension was dispensed in 5 mL scintillation vials. Open vials were kept overnight at 40° C. to form a film. The vials were rubber stoppered and sealed. The sealed vials were kept at 60° C. for 5 days and analyzed for formaldehyde and formic acid levels by a GC method. […] These concentrations are on the higher end of the recommended use concentrations for each antioxidant and were used to test their maximum efficacy.

[2] = physchem; settings: water

SMILES | Level of formaldehyde [1] | Level of formic acid [1] | solubility [2]
CCCOC(=O)c1cc(O)c(O)c(O)c1 [Propyl gallate] | Not detected | 60 ppm | 3330 µg/mL (≈ 15.7 mM)
O=C1O[C@H]([C@@H](O)CO)C(O)=C1O [Ascorbic acid] | Not detected | 184 ppm | –
Cc1cc(C(C)(C)C)c(O)c(C(C)(C)C)c1 [Butylated hydroxy toluene (BHT), Butylated hydroxy toluene] | 95 ppm | 1159 ppm | 0.6 to 1.1 µg/mL (≈ 0.00272 to 0.00499 mM)
